# Laboratory results taken from patent US20240238299A1, “USE OF PYRROLOPYRIMIDINE COMPOUND” (GUANGZHOU JOYO PHARMATECH CO., LTD, priority 2021, published 2024).
# Tests used:
# [1] = tested on: IL-6 secretion by astrocytes; assay: IL-6 release caused by NMO-IgG in astrocytes (ELISA); format: cell-based, rat; conditions: NMO-IgG 250 μg/mL, 24 h; for IL-6 inhibition rate, Mean: 5 μM
# Description: The compound was dissolved in DMSO to prepare a compound stock solution. The compound stock solution was then serially diluted in a gradient using DMSO to prepare a series of 1000× test compound solutions. These 1000× test compound solutions were further diluted at a ratio of 1:100 with cell culture medium to prepare a series of 10× test compound solutions. Finally, according to the experimental well plate loading design, a corresponding volume of 10× solution was added to each well, with two duplicate wells for each drug concentration. In the experiment, the test solution (i.e., 1× solution) had varying final concentrations of compound I, specifically 20, 2.222, 0.247, and 0.027 μM; the concentration of Meprednisone compound (i.e., 1× solution) was 30 μM; the concentration of BAY 11-7082 (i.e., 1× solution) was 5 μM; the final DMSO concentration in each well was 0.1%. DMSO without compound was added to blank control wells, with a final concentration of 0.1%.
# 1) Extraction and separation of primary astrocytes: A mixed glial cell culture medium was prepared from the cerebral cortex of 1-day-old newborn rats. After euthanizing the newborn rats, they were immersed in alcohol. Their skin was cut, the brains were removed, and the cerebral cortex was isolated. The tissues were then ground to remove the connective tissue, and the mixed glial cells were sieved through a 70 µm cell strainer. These cells were then seeded into a cell culture plate coated with poly-L-lysine. The culture medium was DMEM, containing 10% heat-inactivated fetal bovine serum, 100 U/mL penicillin, and […]. After about 12 days of in vitro culture, the cells reached confluence. Microglia, endothelial cells, and oligodendrocytes were removed from the mixed glial cells by vibratory shaking. […] 2) Culture of astrocytes: The isolated astrocytes were cultured in a 37° C., 5% CO2 incubator. The culture medium was changed every 3 to 4 days. The astrocytes could also be digested using trypsin (0.25%) and then frozen in liquid nitrogen for future use.
# Human NMO-IgG was isolated from a sterile-filtered serum pool (AQP4-IgG-positive NMOSD) using a HiTrap Protein G-HP column (GE Healthcare). The serum samples were diluted at a ratio of 1:1 with binding buffer, and after packing the purification column with binding buffer, the serum sample was added. The column was subsequently washed with binding buffer again and the antibodies were eluted according to the instructions. Finally, the antibodies were concentrated on an Amicon Ultra-4 centrifugal filter (millipore) with a 10,000 MW cutoff. The concentrated immunoglobulin was filtered through a 0.22 µm filter. The protein concentration of the concentrate was determined using the BCA method and stored at −80° C. The total IgG extracted from the serum of NMOSD patients was NMO-IgG (containing AQP4-IgG), and the cells were stimulated at a protein concentration of 250 μg/mL during the experiment.
# Astrocytes were cultured or revived until day 2 and then seeded into a 24-well plate at a density of 1.5×10^5 cells per well. The test compounds, including compound I, Meprednisone, and BAY11-7082, were pre-incubated with the cells for 30 minutes at the concentrations previously described. Subsequently, in each group, the cells continued to be stimulated with NMO-IgG at a final working concentration of 250 μg/mL for 24 hours to induce astrocyte damage. Normal human Control-IgG (CON-IgG) stimulation at a final working concentration of 250 μg/mL was used as a negative control.
# After 24 hours of NMO-IgG stimulation of cells, the supernatant was collected. IL-6 levels were detected using an enzyme-linked immunosorbent assay (ELISA) following the instructions of the IL-6 ELISA kit (R&D Systems, USA, #RD6000B). The absorbance (OD values) of the samples in each group was measured, and the concentration of IL-6 in each experimental group was calculated through standard curve fitting. […]
# rat primary astrocytes = assay: Cell viability (CCK-8) in NMO-IgG induced astrocyte injury model; format: cell-based; conditions: NMO-IgG 250 μg/mL, 24 h
# [2] = tested on: MOG35-55-induced experimental autoimmune encephalomyelitis (EAE) mouse model; assay: MOG35-55-induced EAE mouse model, clinical scoring and incidence; format: in vivo, C57BL/6 mice; conditions: for reduction rate in AUC for clinical scoring: 14 days, vs vehicle control
structure (smiles),measurement,setting,value
"Cc1ccc(S(=O)(=O)/C=C/C#N)cc1 [BAY 11-7082, BAY11-7082, reference compound]","IL-6 inhibition rate, Mean",[1],104.2%
same,"IL-6 inhibition rate, Mean",[1]; listed as BAY compound,approximately 104.2%
same,"Cell viability percentage, Mean",rat primary astrocytes; 5 μM,39.5%
"C[C@@H]1C[C@H]2[C@@H]3CCC4=CC(=O)C=C[C@]4(C)[C@@]3(F)[C@@H](O)C[C@]2(C)[C@@]1(O)C(=O)CO [Dexamethasone, reference compound]",reduction rate in AUC for clinical scoring,[2]; 1 mg/kg QD oral,65%
same,incidence of EAE,"[2]; G3, 1 mg/kg PO QD, day 0",0%
same,incidence of EAE,"[2]; G3, 1 mg/kg PO QD, day 2",0%
same,incidence of EAE,"[2]; G3, 1 mg/kg PO QD, day 4",0%
same,incidence of EAE,"[2]; G3, 1 mg/kg PO QD, day 7",0%
same,incidence of EAE,"[2]; G3, 1 mg/kg PO QD, day 9",0%
same,incidence of EAE,"[2]; G3, 1 mg/kg PO QD, day 11",0%
same,incidence of EAE,"[2]; G3, 1 mg/kg PO QD, day 12",10%
same,incidence of EAE,"[2]; G3, 1 mg/kg PO QD, day 13",20%
same,incidence of EAE,"[2]; G3, 1 mg/kg PO QD, day 14",60%
same,incidence of EAE,"[2]; G3, 1 mg/kg PO QD, day 15",60%
same,incidence of EAE,"[2]; G3, 1 mg/kg PO QD, day 16",60%
same,incidence of EAE,"[2]; G3, 1 mg/kg PO QD, day 17",50%
same,incidence of EAE,"[2]; G3, 1 mg/kg PO QD, day 18",50%
same,incidence of EAE,"[2]; G3, 1 mg/kg PO QD, day 19",50%
same,incidence of EAE,"[2]; G3, 1 mg/kg PO QD, day 20",50%
same,incidence of EAE,"[2]; G3, 1 mg/kg PO QD, day 21",50%
same,incidence of EAE,"[2]; G3, 1 mg/kg PO QD, day 22",40%
same,incidence of EAE,"[2]; G3, 1 mg/kg PO QD, day 23",30%
same,incidence of EAE,"[2]; G3, 1 mg/kg PO QD, day 24",30%
same,incidence of EAE,"[2]; G3, 1 mg/kg PO QD, day 25",30%
same,incidence of EAE,"[2]; G3, 1 mg/kg PO QD, day 26",30%
same,incidence of EAE,"[2]; G3, 1 mg/kg PO QD, day 27",30%
same,"EAE clinical scoring, Mean","[2]; G3, 1 mg/kg QD oral, day 0",0.00
same,"EAE clinical scoring, Mean","[2]; G3, 1 mg/kg QD oral, day 2",0.00
same,"EAE clinical scoring, Mean","[2]; G3, 1 mg/kg QD oral, day 4",0.00
same,"EAE clinical scoring, Mean","[2]; G3, 1 mg/kg QD oral, day 7",0.00
same,"EAE clinical scoring, Mean","[2]; G3, 1 mg/kg QD oral, day 9",0.00
same,"EAE clinical scoring, Mean","[2]; G3, 1 mg/kg QD oral, day 11",0.00
same,"EAE clinical scoring, Mean","[2]; G3, 1 mg/kg QD oral, day 12",0.10
same,"EAE clinical scoring, Mean","[2]; G3, 1 mg/kg QD oral, day 13",0.20
same,"EAE clinical scoring, Mean","[2]; G3, 1 mg/kg QD oral, day 14",0.70
same,"EAE clinical scoring, Mean","[2]; G3, 1 mg/kg QD oral, day 15",1.30
same,"EAE clinical scoring, Mean","[2]; G3, 1 mg/kg QD oral, day 16",1.70
same,"EAE clinical scoring, Mean","[2]; G3, 1 mg/kg QD oral, day 17",1.70
same,"EAE clinical scoring, Mean","[2]; G3, 1 mg/kg QD oral, day 18",1.40
same,"EAE clinical scoring, Mean","[2]; G3, 1 mg/kg QD oral, day 19",1.30
same,"EAE clinical scoring, Mean","[2]; G3, 1 mg/kg QD oral, day 20",1.00
same,"EAE clinical scoring, Mean","[2]; G3, 1 mg/kg QD oral, day 21",0.90
same,"EAE clinical scoring, Mean","[2]; G3, 1 mg/kg QD oral, day 22",0.80
same,"EAE clinical scoring, Mean","[2]; G3, 1 mg/kg QD oral, day 23",0.70
same,"EAE clinical scoring, Mean","[2]; G3, 1 mg/kg QD oral, day 24",0.30
same,"EAE clinical scoring, Mean","[2]; G3, 1 mg/kg QD oral, day 25",0.30
same,"EAE clinical scoring, Mean","[2]; G3, 1 mg/kg QD oral, day 26",0.30
same,"EAE clinical scoring, Mean","[2]; G3, 1 mg/kg QD oral, day 27",0.30
"CCCCCCCCc1ccc(CCC(N)(CO)CO)cc1 [Fingolimod, reference compound]",reduction rate in AUC for clinical scoring,[2]; 0.5 mg/kg QD oral,49%
same,"EAE clinical scoring, Mean","[2]; G4, 0.5 mg/kg QD oral, day 0",0.00
same,incidence of EAE,"[2]; G4, 0.5 mg/kg QD oral, day 0",0%
same,"EAE clinical scoring, Mean","[2]; G4, 0.5 mg/kg QD oral, day 2",0.00
same,incidence of EAE,"[2]; G4, 0.5 mg/kg QD oral, day 2",0%
same,"EAE clinical scoring, Mean","[2]; G4, 0.5 mg/kg QD oral, day 4",0.00
same,incidence of EAE,"[2]; G4, 0.5 mg/kg QD oral, day 4",0%
same,"EAE clinical scoring, Mean","[2]; G4, 0.5 mg/kg QD oral, day 7",0.00
same,incidence of EAE,"[2]; G4, 0.5 mg/kg QD oral, day 7",0%
same,"EAE clinical scoring, Mean","[2]; G4, 0.5 mg/kg QD oral, day 9",0.00
same,incidence of EAE,"[2]; G4, 0.5 mg/kg QD oral, day 9",0%
same,"EAE clinical scoring, Mean","[2]; G4, 0.5 mg/kg QD oral, day 11",0.00
same,incidence of EAE,"[2]; G4, 0.5 mg/kg QD oral, day 11",0%
same,"EAE clinical scoring, Mean","[2]; G4, 0.5 mg/kg QD oral, day 12",0.00
same,incidence of EAE,"[2]; G4, 0.5 mg/kg QD oral, day 12",0%
same,"EAE clinical scoring, Mean","[2]; G4, 0.5 mg/kg QD oral, day 13",0.20
same,incidence of EAE,"[2]; G4, 0.5 mg/kg QD oral, day 13",20%
same,"EAE clinical scoring, Mean","[2]; G4, 0.5 mg/kg QD oral, day 14",0.70
same,incidence of EAE,"[2]; G4, 0.5 mg/kg QD oral, day 14",60%
same,"EAE clinical scoring, Mean","[2]; G4, 0.5 mg/kg QD oral, day 15",1.30
same,incidence of EAE,"[2]; G4, 0.5 mg/kg QD oral, day 15",80%
same,"EAE clinical scoring, Mean","[2]; G4, 0.5 mg/kg QD oral, day 16",1.70
same,incidence of EAE,"[2]; G4, 0.5 mg/kg QD oral, day 16",80%
same,"EAE clinical scoring, Mean","[2]; G4, 0.5 mg/kg QD oral, day 17",1.70
same,incidence of EAE,"[2]; G4, 0.5 mg/kg QD oral, day 17",80%
same,"EAE clinical scoring, Mean","[2]; G4, 0.5 mg/kg QD oral, day 18",1.40
same,incidence of EAE,"[2]; G4, 0.5 mg/kg QD oral, day 18",70%
same,"EAE clinical scoring, Mean","[2]; G4, 0.5 mg/kg QD oral, day 19",1.30
same,incidence of EAE,"[2]; G4, 0.5 mg/kg QD oral, day 19",70%
same,"EAE clinical scoring, Mean","[2]; G4, 0.5 mg/kg QD oral, day 20",1.00
same,incidence of EAE,"[2]; G4, 0.5 mg/kg QD oral, day 20",60%
same,"EAE clinical scoring, Mean","[2]; G4, 0.5 mg/kg QD oral, day 21",0.90
same,incidence of EAE,"[2]; G4, 0.5 mg/kg QD oral, day 21",50%
same,"EAE clinical scoring, Mean","[2]; G4, 0.5 mg/kg QD oral, day 22",0.80
same,incidence of EAE,"[2]; G4, 0.5 mg/kg QD oral, day 22",50%
same,"EAE clinical scoring, Mean","[2]; G4, 0.5 mg/kg QD oral, day 23",0.70
same,incidence of EAE,"[2]; G4, 0.5 mg/kg QD oral, day 23",40%
same,"EAE clinical scoring, Mean","[2]; G4, 0.5 mg/kg QD oral, day 24",0.50
same,incidence of EAE,"[2]; G4, 0.5 mg/kg QD oral, day 24",20%
same,"EAE clinical scoring, Mean","[2]; G4, 0.5 mg/kg QD oral, day 25",0.50
same,incidence of EAE,"[2]; G4, 0.5 mg/kg QD oral, day 25",20%
same,"EAE clinical scoring, Mean","[2]; G4, 0.5 mg/kg QD oral, day 26",0.50
same,incidence of EAE,"[2]; G4, 0.5 mg/kg QD oral, day 26",20%
same,"EAE clinical scoring, Mean","[2]; G4, 0.5 mg/kg QD oral, day 27",0.50
same,incidence of EAE,"[2]; G4, 0.5 mg/kg QD oral, day 27",20%
"C[C@H]1C[C@H]2[C@@H]3CCC4=CC(=O)C=C[C@]4(C)[C@H]3C(=O)C[C@]2(C)[C@@]1(O)C(=O)CO [Meprednisone, reference compound]",inhibition at 30 µM,"[1]; Rattus norvegicus, Astrocyte, 30 μM, read-out: IL-6 inhibition rate, Mean",~74.8%
same,viability at 30 µM,"rat primary astrocytes; Rattus norvegicus, Astrocyte, 30 μM, read-out: Cell viability percentage, Mean",81.7%
